From patent publication US20230242538A1, “PanK Modulators and Methods Using Same” (YALE UNIVERSITY, priority 2020, published 2023)
Where two headings read alike, the source gives them in different places.

Tests used:
hPanK3 = hPanK3 (Homo sapiens, UniProt Q9H999); test: Modulation of human PanK (hPanK3); format: biochemical; conditions: for IC50: Table 1; for AC50: Table 2, activation
Experimental: (§1) Compounds of interest were assayed for their activity as inhibitors of fungal pantothenate kinase (PanK), modulators of human PanK, and general toxicity against HeLa cells.

HeLa cells = test: General toxicity against HeLa cells, 72 hr; format: cell-based; conditions: for EC50: Homo sapiens, HeLa
Experimental: as §1

S. cerevisiae monster = test: Growth inhibition of S. cerevisiae monster; format: cell-based; conditions: Saccharomyces cerevisiae; 200 μM of compound (μg/mL equivalent in brackets), VFM medium with no pantothenic acid, 24 h, 10^5 cells/ml
Experimental: In Table 1, “mixed” indicates a compound that is an activator at lower concentrations and is an inhibitor at higher concentrations. % growth inhibition S. cerevisiae monster was determined at 200 μM of compound in VFM medium with no pantothenic acid at 24 h (10^5 cells/ml).

[1] = target: A. fumigatus enzyme (AfPanK) (Aspergillus fumigatus, UniProt Q4WWV3); test: Inhibition of A. fumigatus pantothenate kinase (AfPanK); format: biochemical; conditions: read-out: A. fum. IC50
Cab1 = target: T1, Cab1 (Saccharomyces cerevisiae, UniProt Q04430); test: Inhibition of Cab1 pantothenate kinase; format: biochemical
T1 construct: His6; made in house
Experimental: The activity of recombinant His6-tagged Cab1p and cab1^G351S was determined in vitro using the Kinase-Glo Plus Luminescent Kinase (Kinase-Glo) assay as described in Chiu, et al., 2017, Scientific Reports 7:14234. The assay measures the amount of ATP remaining in solution following the kinase reaction. Briefly, kinase buffer consisted of 100 mM Tris-HCl pH 7.4, 10 mM MgCl2, 100 μM pantothenate (PA), 100 μM ATP, and 0.5 mg/mL γ-globulin. Kinase reactions were initiated with the addition of 500 ng of purified Cab1p or Cab1^G351S in elution buffer (10 mM Tris pH 7.4, NaCl 10 mM, 500 mM imidazole). Heat-inactivated (80° C. for 20 min) Cab1p or Cab were used as controls. Samples were incubated at room temperature for 1 hour. At the end of the incubation, an equal volume (10 μL) of Kinase-Glo reagent was added to each sample, the plates were further incubated for 5 min and luminescence was recorded using BioTek SynergyMx microplate reader (excitation wavelength 485; emission wavelength 528).
as §1

[2] = system: WT cells (Saccharomyces cerevisiae); test: Liquid growth assay in minimal medium, WT yeast; format: cell-based; conditions: 100 μM PA, single agent: squalene 100 μg/mL or terbinafine 80 μg/mL
Description: (§2) Yeast strains (Saccharomyces cerevisiae) used in this study are JS91.15-23 (MATα his3 leu2 trp1 ura3) and JS91.14-24 (MATa ura3 his3 cab1ts) (Olzhausen, et al., 2009, Curr Genet 55, 163-173). Wild type and mutant strains were propagated either in YPD medium (2% bacto-peptone, 2% D-(+)-glucose and 1% yeast extract) or defined pantothenic acid-free (minimal) medium composed of Yeast Nitrogen Base (MP Biomedicals), supplemented with Complete Supplement Mixture (MP Biomedicals) and all vitamins except pantothenic acid. Where indicated, media were supplemented with appropriate concentrations of pantothenic acid.
(§3) Spotting assay were performed as follows. Pre-cultures of WT and cab1^ts yeast strains were prepared in YPD medium overnight at 30° C. Cells were harvested, washed, and diluted to 10^8 cells in 500 μL sterile water. Subsequent serial dilutions were made and 5 μL of cell suspensions were spotted on YPD agar plates lacking or supplemented with amorolfine 10 ng/mL, amphotericin B 1 μg/mL, fluconazole 10 μg/mL or terbinafine 10 μg/mL to achieve 10^6, 10^5, 10^4, 10^3, 10^2, and 10^1 cells per spot. Plates were incubated at 30° C. or 37° C. and imaged every 24 hours. For liquid assay in 96-well plate format, cells were pre-cultured overnight in liquid YPD medium at 30° C., washed three times in water and diluted to achieve 10^4 cells per well in 150 μL of minimal medium supplemented with 1 μM, 10 μM or 100 μM pantothenic acid and either lacking or supplemented with terbinafine (160 μg/ml). All plates were incubated at 30° C. Optical density measurements were taken with a BioTek SynergyMx microplate reader (OD630) every 8 hours for a total of 96 hours. Relative time to mid-log phase was calculated by first graphing growth curves of the varying concentrations of terbinafine for each concentration of pantothenic acid, and then determining the value at which the untreated curve reached saturation, and dividing it by 2 to represent the mid-log value. Dividing the time to mid-log phase of treated cells by the time to mid-log phase of untreated gave the relative time to mid-log phase.

[3] = system: WT cells (Saccharomyces cerevisiae JS91.15-23); test: Spotting assay on YPD agar, WT yeast; format: cell-based; conditions: 30° C., 48 hours; amorolfine 10 ng/mL, fluconazole 10 μg/mL, terbinafine 10 μg/mL, amphotericin B 1 μg/mL
Description: as §2, §3

[4] = system: cab1^ts cells (Saccharomyces cerevisiae JS91.14-24); test: Spotting assay on YPD agar, cab1ts yeast; format: cell-based; conditions: 30° C., 48 hours; amorolfine 10 ng/mL, fluconazole 10 μg/mL, terbinafine 10 μg/mL, amphotericin B 1 μg/mL
Description: as §2, §3

[5] = Table 1, read-out: EC50 HeLa Tox 72 hr
[6] = Table 2, read-out: EC50 HeLa Tox 72 hr
[7] = read-out: A cer. Cab1 IC50 μM, Table 2

A. fumigatus enzyme (AfPanK), sequence (Q4WWV3 entry or part of it): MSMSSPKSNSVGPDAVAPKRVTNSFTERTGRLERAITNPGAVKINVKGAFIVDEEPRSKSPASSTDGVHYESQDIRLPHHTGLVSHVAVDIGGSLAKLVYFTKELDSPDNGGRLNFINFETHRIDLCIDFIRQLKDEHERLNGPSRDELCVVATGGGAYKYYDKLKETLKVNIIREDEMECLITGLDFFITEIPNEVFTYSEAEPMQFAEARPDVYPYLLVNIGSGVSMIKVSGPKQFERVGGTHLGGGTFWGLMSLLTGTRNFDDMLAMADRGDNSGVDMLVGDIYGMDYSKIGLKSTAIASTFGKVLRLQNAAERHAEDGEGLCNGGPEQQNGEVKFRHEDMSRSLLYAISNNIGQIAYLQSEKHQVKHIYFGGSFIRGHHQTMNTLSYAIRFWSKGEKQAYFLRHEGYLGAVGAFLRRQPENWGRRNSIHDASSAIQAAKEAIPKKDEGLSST
hPanK3, sequence (Q9H999 whole entry): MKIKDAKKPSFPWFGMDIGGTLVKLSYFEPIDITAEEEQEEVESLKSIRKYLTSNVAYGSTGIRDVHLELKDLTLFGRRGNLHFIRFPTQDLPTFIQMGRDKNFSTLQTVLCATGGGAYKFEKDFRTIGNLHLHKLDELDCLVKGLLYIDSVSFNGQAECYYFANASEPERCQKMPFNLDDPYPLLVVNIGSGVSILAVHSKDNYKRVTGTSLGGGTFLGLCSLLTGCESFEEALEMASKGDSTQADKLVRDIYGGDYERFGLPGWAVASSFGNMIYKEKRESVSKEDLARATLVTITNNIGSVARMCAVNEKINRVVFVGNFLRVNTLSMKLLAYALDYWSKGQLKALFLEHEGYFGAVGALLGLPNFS
T1 sequence (Q04430 whole entry): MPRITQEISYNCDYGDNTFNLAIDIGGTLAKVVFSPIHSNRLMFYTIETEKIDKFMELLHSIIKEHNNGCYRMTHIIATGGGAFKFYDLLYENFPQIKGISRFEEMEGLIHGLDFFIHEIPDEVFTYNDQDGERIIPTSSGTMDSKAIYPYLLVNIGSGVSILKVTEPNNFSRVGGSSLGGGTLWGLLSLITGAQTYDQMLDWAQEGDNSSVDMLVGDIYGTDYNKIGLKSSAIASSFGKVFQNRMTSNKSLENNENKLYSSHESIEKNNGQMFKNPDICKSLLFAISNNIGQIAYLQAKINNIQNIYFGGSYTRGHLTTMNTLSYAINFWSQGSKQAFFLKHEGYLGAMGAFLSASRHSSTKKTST

| Structure (SMILES) | IC50 (hPanK3) [µM] | inhibition at 200 µM (S. cerevisiae monster) [%] | IC50 ([1]; Table 1) [µM] | AC50 (hPanK3) [µM] | IC50 ([1]; Table 2) [µM] | further results |
| --- | --- | --- | --- | --- | --- | --- |
| Cc1cc(C(=O)O)n2nc(NCc3ccc(C(C)(C)C)cc3)nc2n1 [Compound A3] | > 5 | 87 | 0.086 |  |  | EC50 (HeLa cells; [5]): > 100 µM |
| COC(=O)CNC(=O)c1cc(C)nc2nc(NCc3ccc(C(C)(C)C)cc3)nn12 [Compound A8] | > 100 | 67 | > 50 |  |  |  |
| Cc1cc(=O)n2nc(NCc3ccc(C(C)C)cc3)nc2[nH]1 [Compound B2, 2-((4-isopropylbenzyl)amino)-5-methyl-[1,2,4]triazolo[1,5-a]pyrimidin-7(4H)-one] |  |  |  | 0.0053 | 0.27 | EC50 (HeLa cells; [6]): > 100 µM; IC50 (Cab1): > 100 µM |
| CC(C)(C)c1ccc(CNc2nc3nc(CN4CCOCC4)cc(OCC(=O)O)n3n2)cc1 [Compound A14] |  | 49 | 78 |  |  |  |
| CC(C)(C)c1ccc(CNc2nc3nc(CN4CCOCC4)cc(OCCO)n3n2)cc1 [Compound A12] |  | 94 | 68 |  |  |  |
| CC(C)=CCC/C(C)=C/CC/C(C)=C/CC/C=C(\C)CC/C=C(\C)CCC=C(C)C [squalene] |  |  |  |  |  | mid-log phase reached at (time) [2]: 34 hours |
| CN(C)c1cc(CN2CCOCC2)nc2nc(NCc3ccc(C(C)(C)C)cc3)nn12 [Compound B7] |  |  |  | 0.076 | 44 | EC50 (HeLa cells; [6]): > 100 µM; IC50 (Cab1; [7]): > 100 µM |
| CC(C)(C)c1ccc(CNc2nc3nc(CN4CCOCC4)cc(N)n3n2)cc1 [Compound A13] |  | 25 | 71 |  |  | EC50 (HeLa cells; [5]): > 100 µM |
| CN1CCN(Cc2cc(=O)n3nc(-c4ccc(C(C)(C)C)cc4)nc3[nH]2)CC1 [Compound A5, 2-(4-(tert-butyl)phenyl)-5-((4-methylpiperazin-1-yl)methyl)-[1,2,4]triazolo[1,5-a]pyrimidin-7(4H)-one] | > 100 | 86 | 5.5 |  |  | EC50 HeLa Tox 72 hr μM (HeLa cells; Table 1): Inactive |
| Cc1cc(C(=O)NCC(N)=O)n2nc(NCc3ccc(C(C)(C)C)cc3)nc2n1 [Compound A4] | > 100 | 62 | 2.4 |  |  |  |
| CC(C)c1ccc(CNc2nc3[nH]c(CN4CCOCC4)cc(=O)n3n2)cc1 [Compound B1, 2-((4-isopropylbenzyl)amino)-5-(morpholinomethyl)-[1,2,4]triazolo[1,5-a]pyrimidin-7(4H)-one] |  |  |  | 0.0017 | 0.25 | EC50 HeLa Tox 72 hr μM (HeLa cells; Table 2): Inactive; IC50 (Cab1): 0.43 µM |
| Cc1cc(C(=O)NCC(=O)O)n2nc(NCc3ccc(C(C)(C)C)cc3)nc2n1 [Compound A18] | > 100 | 29 | ~100 |  |  |  |
| CC(C)(C)c1ccc(CNc2nc3[nH]c(CN4CCOCC4)cc(=O)n3n2)cc1 [Compound B6] |  |  |  | 0.058 | 0.26 | EC50 HeLa Tox 72 hr μM (HeLa cells; Table 2): Inactive; IC50 (Cab1; [7]): 0.19 µM |
| Cc1ccccc1-c1nc2[nH]c(CNc3ccccc3)cc(=O)n2n1 [Compound B3, 5-((phenylamino)methyl)-2-(o-tolyl)-[1,2,4]triazolo[1,5-a]pyrimidin-7(4H)-one] |  |  |  | 0.024 | 10 | EC50 HeLa Tox 72 hr μM (HeLa cells; Table 2): Inactive; IC50 (Cab1): > 100 µM |
| Cc1cc(C(=O)NCc2cccnc2)n2nc(NCc3ccc(C(C)(C)C)cc3)nc2n1 [Compound A17] | > 100 | 63 | ~100 |  |  |  |
| CCOc1cc(CN2CCOCC2)nc2nc(NCc3ccc(C(C)(C)C)cc3)nn12 [Compound A15] |  | 37 | 98 |  |  |  |
| CCC(C)(C)c1ccc(CC(C)CN2C[C@@H](C)O[C@@H](C)C2)cc1 (stereo partly shown) [amorolfine] |  |  |  |  |  | growth of WT cells on YPD agar in the presence of the drug [3]: completely blocked; growth of cab1^ts cells on YPD agar in the presence of the drug [4]: not affected |
| CC(C)(C)c1ccc(CNc2nc3[nH]c(CN4CCCCC4)cc(=O)n3n2)cc1 [Compound B9] |  |  |  | 0.27 | 1.8 | EC50 (HeLa cells; [6]): > 100 µM; IC50 (Cab1; [7]): 30 µM |
| CC(C)(C)c1ccc(CNc2nc3nc(CN4CCOCC4)cc(OCC(N)=O)n3n2)cc1 [Compound A11] |  | 77 | 62 |  |  |  |
| CC(=O)N1CCN(Cc2cc(=O)n3nc(NCc4ccc(C(C)(C)C)cc4)nc3[nH]2)CC1 [Compound A1] |  | 98 | 0.036 |  |  | EC50 HeLa Tox 72 hr μM (HeLa cells; Table 1): Inactive |
| COc1cc(CN2CCOCC2)nc2nc(NCc3ccc(C(C)(C)C)cc3)nn12 [Compound A6] | > 100 | 34 | 31 |  |  | EC50 (HeLa cells; [5]): > 100 µM |
| CN1CCN(Cc2cc(=O)n3nc(NCc4ccc(C(C)(C)C)cc4)nc3[nH]2)CC1 [Compound B8] |  |  |  | 0.16 | 0.89 | EC50 HeLa Tox 72 hr μM (HeLa cells; Table 2): Inactive; IC50 (Cab1; [7]): 0.55 µM |
| Cc1cc(C(=O)Nc2ccccn2)n2nc(NCc3ccc(C(C)(C)C)cc3)nc2n1 [Compound A7] | > 100 | 79 | > 50 |  |  |  |
| Cc1cc(C(=O)NCCO)n2nc(NCc3ccc(C(C)(C)C)cc3)nc2n1 [Compound A9] | > 100 | 102 | > 50 |  |  |  |
| CC(C)c1ccc(CNc2nc3[nH]c(CN4CCCC4)cc(=O)n3n2)cc1 [Compound B4, 2-((4-isopropylbenzyl)amino)-5-(pyrrolidin-1-ylmethyl)-[1,2,4]triazolo[1,5-a]pyrimidin-7(4H)-one] |  |  |  | 0.032 | 11 | EC50 HeLa Tox 72 hr μM (HeLa cells; Table 2): Inactive; IC50 (Cab1): > 100 µM |
| CC(C)NCc1cc(=O)n2nc(NCc3ccc(C(C)C)cc3)nc2[nH]1 [Compound A10, 5-((isopropylamino)methyl)-2-((4-isopropylbenzyl)amino)-[1,2,4]triazolo[1,5-a]pyrimidin-7(4H)-one] |  | 13 | 53 |  |  |  |
| CNc1cc(CN2CCOCC2)nc2nc(NCc3ccc(C(C)(C)C)cc3)nn12 [Compound B5] |  |  |  | 0.038 | 28 | EC50 (HeLa cells; [6]): > 100 µM; IC50 (Cab1; [7]): 9.4 µM |
| CC(C)(C)OC(=O)N1CCN(Cc2cc(=O)n3nc(NCc4ccc(C(C)(C)C)cc4)nc3[nH]2)CC1 [Compound A2] |  | 87 | 0.083 |  |  | EC50 HeLa Tox 72 hr μM (HeLa cells; Table 1): Inactive |
| OC(Cn1cncn1)(Cn1cncn1)c1ccc(F)cc1F [fluconazole] |  |  |  |  |  | growth of WT cells on YPD agar in the presence of the drug [3]: greatly reduced; growth of cab1^ts cells on YPD agar in the presence of the drug [4]: not affected |
| CC(C)(C)c1ccc(CNc2nc3nc(CN4CCOCC4)cc(Cl)n3n2)cc1 [Compound A16] | > 100 | 80 | ~100 |  |  | EC50 (HeLa cells; [5]): 2.3 µM |
